Source: patent US20250152585A1, “PHARMACEUTICAL COMPOUND” (Duke Street Bio Limited, priority 2022, published 2025)

How the values were obtained:
[1] = target: T1, N-terminally FLAG-tagged PARP2 (amino acids 1-583) (Homo sapiens, UniProt Q9UGN5); assay: PARP2 probe displacement HTRF assay; type: binding; conditions: binned Kd, PARP2 probe displacement HTRF
T1 construct: N-terminally FLAG-tagged PARP2 (amino acids 1-583)
Procedure: Data analysis was performed identical as for PARP1.

[2] = target: T2, full length N-terminally FLAG-tagged PARP1 (Homo sapiens, UniProt P09874); assay: PARP1 probe displacement HTRF assay; conditions: for Selectivity: PARP1 over PARP2, ratio Kd (PARP2)/Kd (PARP1), probe displacement HTRF; for Kd: read-out: PARP1 HTRF, binned Kd, PARP1 probe displacement HTRF
T2 sequence (P09874 whole entry): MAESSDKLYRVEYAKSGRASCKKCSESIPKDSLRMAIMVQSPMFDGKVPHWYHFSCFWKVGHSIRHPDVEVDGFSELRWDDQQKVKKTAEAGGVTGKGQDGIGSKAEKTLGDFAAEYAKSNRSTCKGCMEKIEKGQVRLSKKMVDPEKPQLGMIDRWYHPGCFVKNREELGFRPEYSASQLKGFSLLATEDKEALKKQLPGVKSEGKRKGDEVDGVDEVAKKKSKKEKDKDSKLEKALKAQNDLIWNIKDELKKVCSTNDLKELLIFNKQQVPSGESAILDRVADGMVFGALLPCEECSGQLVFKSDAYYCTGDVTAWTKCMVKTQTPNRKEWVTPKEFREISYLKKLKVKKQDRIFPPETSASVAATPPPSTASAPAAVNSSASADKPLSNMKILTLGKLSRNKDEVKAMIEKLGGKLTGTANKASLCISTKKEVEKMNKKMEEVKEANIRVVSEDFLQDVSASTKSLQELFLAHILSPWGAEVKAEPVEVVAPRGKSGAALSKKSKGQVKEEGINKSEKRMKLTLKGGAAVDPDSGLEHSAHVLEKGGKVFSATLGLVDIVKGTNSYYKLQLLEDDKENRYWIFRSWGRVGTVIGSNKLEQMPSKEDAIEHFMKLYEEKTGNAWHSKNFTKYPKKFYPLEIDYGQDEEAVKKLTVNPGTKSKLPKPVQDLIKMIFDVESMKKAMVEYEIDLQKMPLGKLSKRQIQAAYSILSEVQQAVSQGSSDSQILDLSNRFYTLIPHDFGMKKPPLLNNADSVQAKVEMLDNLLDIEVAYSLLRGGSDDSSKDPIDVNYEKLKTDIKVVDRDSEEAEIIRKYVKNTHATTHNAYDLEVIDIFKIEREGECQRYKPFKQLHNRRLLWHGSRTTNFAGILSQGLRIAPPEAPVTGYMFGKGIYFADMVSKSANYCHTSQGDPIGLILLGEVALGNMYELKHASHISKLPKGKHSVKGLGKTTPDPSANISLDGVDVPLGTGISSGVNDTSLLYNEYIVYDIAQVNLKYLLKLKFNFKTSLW

[3] = target: T2, full length N-terminally FLAG-tagged PARP1; assay: PARP1 biochemical DELFIA assay (auto-PARylation); parameters: recombinant full length human N-terminally FLAG-tagged PARP1; conditions: binned IC50, PARP1 biochemical DELFIA assay

T1 sequence (Q9UGN5 whole entry, the tested form may be a part): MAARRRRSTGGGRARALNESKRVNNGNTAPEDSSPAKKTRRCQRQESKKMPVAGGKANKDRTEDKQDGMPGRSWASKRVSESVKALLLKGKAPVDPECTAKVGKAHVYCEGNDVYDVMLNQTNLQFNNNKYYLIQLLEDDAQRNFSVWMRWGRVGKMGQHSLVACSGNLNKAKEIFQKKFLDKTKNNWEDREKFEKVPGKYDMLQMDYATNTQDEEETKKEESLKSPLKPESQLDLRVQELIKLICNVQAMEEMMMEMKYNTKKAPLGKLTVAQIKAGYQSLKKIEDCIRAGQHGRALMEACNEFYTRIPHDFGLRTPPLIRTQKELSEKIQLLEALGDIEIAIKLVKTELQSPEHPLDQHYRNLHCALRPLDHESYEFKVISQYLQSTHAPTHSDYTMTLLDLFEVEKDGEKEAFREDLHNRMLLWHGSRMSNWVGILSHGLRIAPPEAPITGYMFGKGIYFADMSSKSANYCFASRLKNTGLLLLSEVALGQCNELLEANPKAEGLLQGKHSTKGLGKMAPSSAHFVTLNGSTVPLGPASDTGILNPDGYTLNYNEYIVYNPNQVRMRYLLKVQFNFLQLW

| Structure (SMILES) | Kd [1] [nM] | Selectivity [2] | Kd [2] [nM] | IC50 [3] [nM] |
| --- | --- | --- | --- | --- |
| NC(=O)c1ccc(N2CCC(N3CCC(c4nc5ccccc5c(=O)[nH]4)C3)CC2)cn1 (single isomer, unassigned) [Compound 123b] | 1000 to 10000 | +++ (+++ indicate a value of at least 100) | < 10 | < 10 |
| CNC(=O)c1ccc(N2CCC(N3CCC(c4nc5ccccc5c(=O)[nH]4)C3)CC2)c(C)n1 (single isomer, unassigned) [Compound 125a] | 1000 to 10000 | +++ (+++ indicate a value of at least 100) | < 10 | < 10 |
| CNC(=O)c1ccc(N2CCC(N3CCC(c4nc5ccccc5c(=O)[nH]4)C3)CC2)c(C)n1 (single isomer, unassigned) [Compound 125b] | 1000 to 10000 | +++ (+++ indicate a value of at least 100) | < 10 | < 10 |
| CNC(=O)c1ccc(N2CCC(N3CCCC(c4ccc(C5CC5)c(=O)[nH]4)C3)CC2)cn1 (single isomer, unassigned) [Compound 126a] | 1000 to 10000 | +++ (+++ indicate a value of at least 100) | < 10 | < 10 |
| CNC(=O)c1ccc(N2CCC(N3CCCC(c4ccc(C5CC5)c(=O)[nH]4)C3)CC2)cn1 (single isomer, unassigned) [Compound 126b] | > 10000 | + (+ indicates a value of 10 to less than 50) | 100 to 1000 | 100 to 1000 |
| CNC(=O)c1ccc(N2CCC(N3CCC(c4cc5cccc(Cl)c5c(=O)[nH]4)C3)CC2)cn1 (single isomer, unassigned) [Compound 128a] | 1000 to 10000 | +++ (+++ indicate a value of at least 100) | 10 to 100 | 10 to 100 |
| CNC(=O)c1ccc(N2CCC(N3CCC(c4cc5cccc(Cl)c5c(=O)[nH]4)C3)CC2)cn1 (single isomer, unassigned) [Compound 128b] | 10 to 100 | ++ (++ indicates a value of 50 to less than 100) | < 10 | < 10 |
| CNC(=O)c1ccc(N2CCC(N3CCC(c4cc5ccc(Cl)cc5c(=O)[nH]4)C3)CC2)cn1 (single isomer, unassigned) [Compound 129a] | 1000 to 10000 | +++ (+++ indicate a value of at least 100) | < 10 | < 10 |
| O=C(NCC(F)(F)F)c1ccc(N2CCC(N3CCC(c4nc5ccccc5c(=O)[nH]4)C3)CC2)cn1 (single isomer, unassigned) [Compound 130a] | 100 to 1000 | + (+ indicates a value of 10 to less than 50) | < 10 | < 10 |
| O=C(NCC(F)(F)F)c1ccc(N2CCC(N3CCC(c4nc5ccccc5c(=O)[nH]4)C3)CC2)cn1 (single isomer, unassigned) [Compound 130b] | 100 to 1000 | +++ (+++ indicate a value of at least 100) | < 10 | < 10 |
| CNC(=O)c1ccc(N2CCC(N3CCCC(c4nc5ccccc5c(=O)[nH]4)C3)CC2)c(C)n1 (single isomer, unassigned) [Compound 131a] | 1000 to 10000 | + (+ indicates a value of 10 to less than 50) | 100 to 1000 | 10 to 100 |
| CNC(=O)c1ccc(N2CCC(N3CCCC(c4nc5ccccc5c(=O)[nH]4)C3)CC2)c(C)n1 (single isomer, unassigned) [Compound 131b] | > 10000 | +++ (+++ indicate a value of at least 100) | < 10 | < 10 |
| CCc1ccc(C2CCN(C3CCN(c4ccc(C(=O)NC)nc4C)CC3)C2)[nH]c1=O (single isomer, unassigned) [Compound 133a] | 1000 to 10000 | +++ (+++ indicate a value of at least 100) | < 10 | < 10 |
| CCc1ccc(C2CCN(C3CCN(c4ccc(C(=O)NC)nc4C)CC3)C2)[nH]c1=O (single isomer, unassigned) [Compound 133b] | > 10000 | +++ (+++ indicate a value of at least 100) | 10 to 100 | 10 to 100 |
